According to patent US20130303533A1, “AZOLOPYRIDINE AND AZOLOPYRIMIDINE COMPOUNDS AND METHODS OF USE THEREOF” (AMBIT BIOSCIENCES CORPORATION, priority 2010, published 2013):

Experiments:
[1] = test system: GM-CSFR/JAK2/STAT5 pathway; test: CSTF-1 cell-based reporter assay; details: Homo sapiens; csTF-1 cells, GM-CSF at 2 ng/mL, 4 hours, beta-lactamase reporter; read-out: Cell Assay: CS TF-1 reporter assay IC50
Description: CSTF-1 Cell-Based Reporter Assay
CSTF-1 cells are derived from the human erythroleukemia cell line that is growth dependent on GM-CSF and has an intact GM-CSFR/JAK2/STAT5 pathway. The cell line contains stably integrated beta-lactamase reporter gene under the control of the […] (irf 1) response element recognized by the activated transcription factor STAT5. csTF-1 cells (Invitrogen K1219) were washed with assay media (97% OPTIMEM/0.5% dialyzed FBS/0.1 mM NEAA/1 mM Na pyr/P/S) and seeded in the same media at 5×10^5 cell/mL in T150 flask. After 16 hour incubation, cells were seeded at 2×10^5 cell/well in 50 μl volume, into Costar, clear bottom, 96-well assay plates. Serial dilutions of compounds were added to the plates with final DMSO concentration at 0.5% and GM-CSF at 2 ng/mL and the plates were then incubated at 30° C. and 5% CO2 for 4 hours. The plates were brought to room temperature before adding Substrate Mixture according to manufacturer's protocol (Invitrogen, Catalog #K1085). The assay plates containing the substrate mixture were incubated in the dark at room temperature for 2 hours. Blue and green fluorescence was measured with excitation at 409 nm and emission at 460 nm (for blue) and excitation at 409 nm and emission at 530 nm (for green) using Spectra Max Gemini EM.

JAK2 = target: T1, JAK2 (Homo sapiens, UniProt O60674); test: Competition binding assay to determine binding constants (Kd), JAK2
T1 construct: made in house; host or cells: T7 phage display or HEK-293 cells (alternatives)
T1 sequence (O60674 whole entry): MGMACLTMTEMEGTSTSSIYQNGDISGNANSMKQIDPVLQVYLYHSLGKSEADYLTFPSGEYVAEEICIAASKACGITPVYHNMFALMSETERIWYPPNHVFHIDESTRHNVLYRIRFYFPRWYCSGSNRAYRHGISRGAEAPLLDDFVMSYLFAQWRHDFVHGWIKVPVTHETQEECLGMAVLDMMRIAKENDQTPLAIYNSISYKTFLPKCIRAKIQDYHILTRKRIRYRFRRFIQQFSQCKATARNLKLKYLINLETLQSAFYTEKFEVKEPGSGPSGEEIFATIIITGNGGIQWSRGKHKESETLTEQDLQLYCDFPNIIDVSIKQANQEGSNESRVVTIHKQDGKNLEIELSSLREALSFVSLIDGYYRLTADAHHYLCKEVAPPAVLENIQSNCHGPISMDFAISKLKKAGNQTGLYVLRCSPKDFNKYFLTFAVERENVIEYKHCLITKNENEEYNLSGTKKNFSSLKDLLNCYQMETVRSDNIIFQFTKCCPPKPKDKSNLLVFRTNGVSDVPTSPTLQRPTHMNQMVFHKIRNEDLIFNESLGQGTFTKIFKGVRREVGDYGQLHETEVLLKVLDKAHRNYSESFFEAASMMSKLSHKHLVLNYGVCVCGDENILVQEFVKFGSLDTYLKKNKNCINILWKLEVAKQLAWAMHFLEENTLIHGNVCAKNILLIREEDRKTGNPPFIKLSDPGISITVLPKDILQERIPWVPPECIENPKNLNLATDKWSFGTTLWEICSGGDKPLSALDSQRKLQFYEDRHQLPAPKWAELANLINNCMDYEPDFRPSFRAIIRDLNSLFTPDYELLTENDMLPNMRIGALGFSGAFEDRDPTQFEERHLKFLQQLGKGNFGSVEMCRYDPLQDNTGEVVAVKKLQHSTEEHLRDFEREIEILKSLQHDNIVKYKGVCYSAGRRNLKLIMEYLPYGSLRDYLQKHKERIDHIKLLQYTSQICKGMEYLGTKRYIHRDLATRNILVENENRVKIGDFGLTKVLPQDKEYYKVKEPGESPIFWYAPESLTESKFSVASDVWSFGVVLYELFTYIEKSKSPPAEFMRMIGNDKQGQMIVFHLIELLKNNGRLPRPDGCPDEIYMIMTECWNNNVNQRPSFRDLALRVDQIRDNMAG
Text: (§1) Competition Binding Assay to Determine Binding Constants (Kd) of the Compounds Against JAK Kinases
(§2) Competition binding assays used herein were developed, validated and performed as described in Fabian et al., Nature Biotechnology 2005, 23, 329-336. Kinases were produced as fusions to T7 phage (See, Fabian et al. or WO04/015142) or alternatively, the kinases were expressed in HEK-293 cells and subsequently tagged with DNA for PCR detection (See, WO08/005,310). For the binding assays, streptavidin-coated magnetic beads were treated with biotinylated affinity ligands for 30 min at rt to generate affinity resins. The liganded beads were blocked with excess biotin and washed with blocking buffer (SeaBlock (Pierce), 1% BSA, 0.05% Tween 20, 1 mM DTT) to remove unbound ligand and to reduce non-specific binding. Binding reactions were assembled by combining kinase, liganded affinity beads, and test compounds in 1× binding buffer (20% SeaBlock, 0.17×PBS, 0.05% Tween 20, 6 mM DTT). Test compounds were prepared as 100× stocks in DMSO and rapidly diluted into the aqueous environment. DMSO was added to control assays lacking a test compound. Primary screen interactions were performed in polypropylene 384-well plates in a final volume of 34 μL, while Kd determinations were performed in polystyrene 96-well plates in a final volume of 135 μL. The assay plates were incubated at room temperature with shaking for 1 hour, long enough for binding reactions to reach equilibrium, and the affinity beads were washed extensively with wash buffer (1×PBS, 0.05% Tween 20) to remove unbound protein. The beads were then resuspended in elution buffer (1×PBS, 0.05% Tween 20, 2 μM non-biotinylated affinity ligand) and incubated at room temperature with shaking for 30 min. The kinase concentration in the eluates was measured by quantitative PCR. Each kinase was tested individually against each compound. Kds were determined using eleven serial threefold dilutions. A selectivity score, which is a quantitative measure of selectivity of a compound against a panel of enzymes, may be calculated for a compound by dividing the number of enzymes for which a compound meets a set criteria, (for example, a binding constant of 100 nM or less), by the total number of enzymes tested.

JAK3 = target: T2, JAK3 (Homo sapiens, UniProt P52333); test: Competition binding assay to determine binding constants (Kd), JAK3
T2 construct: made in house; host or cells: T7 phage display or HEK-293 cells (alternatives)
T2 sequence (P52333 1-1124): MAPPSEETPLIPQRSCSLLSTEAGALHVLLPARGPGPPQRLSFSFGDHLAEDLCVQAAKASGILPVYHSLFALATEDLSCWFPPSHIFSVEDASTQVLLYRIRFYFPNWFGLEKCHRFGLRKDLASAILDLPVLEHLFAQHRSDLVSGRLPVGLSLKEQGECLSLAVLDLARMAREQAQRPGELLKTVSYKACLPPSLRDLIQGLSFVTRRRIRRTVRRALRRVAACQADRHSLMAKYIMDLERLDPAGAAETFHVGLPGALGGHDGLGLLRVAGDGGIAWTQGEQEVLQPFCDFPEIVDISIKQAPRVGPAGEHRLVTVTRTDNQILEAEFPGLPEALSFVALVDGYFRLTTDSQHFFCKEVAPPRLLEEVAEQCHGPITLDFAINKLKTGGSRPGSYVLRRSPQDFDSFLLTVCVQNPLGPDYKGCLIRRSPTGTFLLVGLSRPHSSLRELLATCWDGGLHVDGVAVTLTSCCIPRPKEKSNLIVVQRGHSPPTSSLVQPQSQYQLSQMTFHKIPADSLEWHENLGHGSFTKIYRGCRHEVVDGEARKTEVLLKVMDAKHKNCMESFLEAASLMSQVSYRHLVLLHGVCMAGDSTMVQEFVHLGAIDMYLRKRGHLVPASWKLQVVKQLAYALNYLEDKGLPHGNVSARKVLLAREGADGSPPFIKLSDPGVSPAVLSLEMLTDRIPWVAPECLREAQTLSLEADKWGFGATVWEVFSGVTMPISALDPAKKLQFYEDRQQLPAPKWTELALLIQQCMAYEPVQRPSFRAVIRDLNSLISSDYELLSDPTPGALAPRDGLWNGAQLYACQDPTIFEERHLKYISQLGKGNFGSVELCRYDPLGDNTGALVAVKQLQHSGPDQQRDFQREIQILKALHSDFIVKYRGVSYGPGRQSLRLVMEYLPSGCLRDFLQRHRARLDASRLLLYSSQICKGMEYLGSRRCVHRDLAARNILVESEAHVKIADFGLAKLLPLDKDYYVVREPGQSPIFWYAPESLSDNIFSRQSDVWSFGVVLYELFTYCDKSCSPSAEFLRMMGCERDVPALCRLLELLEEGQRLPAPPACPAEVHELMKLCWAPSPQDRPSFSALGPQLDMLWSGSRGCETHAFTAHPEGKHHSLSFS
Text: as §1, §2

TYK2 = target: T3, TYK2 (Homo sapiens, UniProt P29597); test: Competition binding assay to determine binding constants (Kd), TYK2
T3 construct: made in house; host or cells: T7 phage display or HEK-293 cells (alternatives)
T3 sequence (P29597 whole entry): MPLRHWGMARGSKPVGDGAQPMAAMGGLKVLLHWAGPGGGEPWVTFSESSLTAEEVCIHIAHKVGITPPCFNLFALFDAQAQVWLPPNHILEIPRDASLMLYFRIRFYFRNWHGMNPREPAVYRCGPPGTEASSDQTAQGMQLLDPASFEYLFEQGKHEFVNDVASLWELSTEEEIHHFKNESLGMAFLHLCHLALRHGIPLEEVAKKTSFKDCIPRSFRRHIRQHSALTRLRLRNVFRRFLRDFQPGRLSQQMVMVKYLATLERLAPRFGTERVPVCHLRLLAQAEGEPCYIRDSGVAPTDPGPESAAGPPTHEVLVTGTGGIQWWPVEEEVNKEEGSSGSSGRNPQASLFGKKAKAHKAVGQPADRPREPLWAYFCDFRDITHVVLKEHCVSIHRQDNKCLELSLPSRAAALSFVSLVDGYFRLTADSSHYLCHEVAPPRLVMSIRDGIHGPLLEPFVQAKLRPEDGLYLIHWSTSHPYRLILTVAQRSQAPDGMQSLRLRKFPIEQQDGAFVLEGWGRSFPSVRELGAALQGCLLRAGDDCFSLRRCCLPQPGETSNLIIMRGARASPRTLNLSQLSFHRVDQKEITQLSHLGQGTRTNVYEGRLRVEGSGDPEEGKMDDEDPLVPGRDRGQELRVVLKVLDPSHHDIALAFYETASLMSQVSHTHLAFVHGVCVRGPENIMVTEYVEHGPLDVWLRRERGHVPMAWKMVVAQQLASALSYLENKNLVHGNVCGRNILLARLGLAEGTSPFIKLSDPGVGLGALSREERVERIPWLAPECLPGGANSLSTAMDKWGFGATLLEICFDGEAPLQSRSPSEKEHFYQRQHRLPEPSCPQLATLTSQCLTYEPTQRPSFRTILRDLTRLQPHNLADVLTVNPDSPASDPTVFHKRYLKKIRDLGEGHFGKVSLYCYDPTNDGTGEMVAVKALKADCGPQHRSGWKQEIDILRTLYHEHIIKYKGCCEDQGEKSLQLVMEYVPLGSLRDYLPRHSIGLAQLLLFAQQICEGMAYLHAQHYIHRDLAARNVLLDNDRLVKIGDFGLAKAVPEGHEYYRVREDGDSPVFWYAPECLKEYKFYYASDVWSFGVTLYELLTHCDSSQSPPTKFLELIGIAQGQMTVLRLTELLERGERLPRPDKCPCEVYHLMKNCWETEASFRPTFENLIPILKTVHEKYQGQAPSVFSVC
Text: as §1, §2

IC50 [1] [nM] | Kd (JAK2) [nM] | Kd (JAK3) [nM] | Kd (TYK2) [nM] | Structure (SMILES)
100 to 500 | > 10 | > 100 | 10 to 100 | CCn1ncc2c(Nc3cc(C)[nH]n3)nc(Sc3ccc(F)cc3)nc21 [Example 43, 1-ethyl-6-((4-fluorophenyl)thio)-N-(5-methyl-1H-pyrazol-3-yl)-1H-pyrazolo[3,4-d]pyrimidin-4-amine]
100 to 500 | ≤ 1 | 10 to 100 | ≤ 10 | Cc1cc(Nc2nc(S(=O)(=O)c3ccc(F)cc3)nc3c2cnn3CCN2CCOCC2)n[nH]1 [Example 29, 6-(4-fluorophenylsulfonyl)-N-(5-methyl-1H-pyrazol-3-yl)-1-(2-morpholinoethyl)-1H-pyrazolo[3,4-d]pyrimidin-4-amine]
≤ 100 | ≤ 1 | ≤ 10 | ≤ 10 | Cc1cc(Nc2nc(C(F)(F)c3ccc(F)cn3)nc3nn(C4CCCC4)cc23)n[nH]1 [Example 44, 2-cyclopentyl-6-(difluoro(5-fluoropyridin-2-yl)methyl)-N-(5-methyl-1H-pyrazol-3-yl)-2H-pyrazolo[3,4-d]pyrimidin-4-amine]
100 to 500 | ≤ 1 | 10 to 100 | ≤ 10 | Cc1cc(Nc2nc(S(=O)(=O)c3ccc(F)cc3)nc3c2cnn3C2CCOCC2)n[nH]1 [Example 28, 6-(4-fluorophenylsulfonyl)-N-(5-methyl-1H-pyrazol-3-yl)-1-(tetrahydro-2H-pyran-4-yl)-1H-pyrazolo[3,4-d]pyrimidin-4-amine]
≤ 100 | ≤ 1 | ≤ 10 | ≤ 10 | CCn1ccc2c(Nc3cc[nH]n3)nc(S(=O)(=O)c3ccc(F)cc3)nc21 [Example 8, 7-ethyl-2-(4-fluorophenylsulfonyl)-N-(1H-pyrazol-3-yl)-7H-pyrrolo[2,3-d]pyrimidin-4-amine]
100 to 500 | 1 to 10 | 10 to 100 | ≤ 10 | COc1nc2nc(C(F)(F)c3ccc(F)cc3)nc(Nc3cc(C)[nH]n3)c2s1 [Example 39, 5-(difluoro(4-fluorophenyl)methyl)-2-methoxy-N-(5-methyl-1H-pyrazol-3-yl)thiazolo[4,5-d]pyrimidin-7-amine]
≤ 100 | ≤ 1 | ≤ 10 | ≤ 10 | COCCn1ccc2c(Nc3cc[nH]n3)nc(S(=O)(=O)c3ccc(F)cc3)nc21 [Example 12, 2-(4-fluorophenylsulfonyl)-7-(2-methoxyethyl)-N-(1H-pyrazol-3-yl)-7H-pyrrolo[2,3-d]pyrimidin-4-amine]
100 to 500 | 1 to 10 | 10 to 100 | ≤ 10 | CSc1nc2nc(C(F)(F)c3ccc(F)cc3)nc(Nc3cc(C)[nH]n3)c2s1 [Example 35, 5-(difluoro(4-fluorophenyl)methyl)-N-(5-methyl-1H-pyrazol-3-yl)-2-(methylthio)thiazolo[4,5-d]pyrimidin-7-amine]
100 to 500 | ≤ 1 | ≤ 10 | ≤ 10 | CN(C)C(=O)Cn1ccc2c(Nc3cc[nH]n3)nc(S(=O)(=O)c3ccc(F)cc3)nc21 [Example 16, 2-(4-(1H-pyrazol-3-ylamino)-2-(4-fluorophenylsulfonyl)-7H-pyrrolo[2,3-d]pyrimidin-7-yl)-N,N-dimethylacetamide]
≤ 100 | ≤ 1 | ≤ 10 | ≤ 10 | O=S(=O)(c1ccc(F)cc1)c1nc(Nc2cc[nH]n2)c2cc[nH]c2n1 [Example 3, 2-(4-fluorophenylsulfonyl)-N-(1H-pyrazol-3-yl)-7H-pyrrolo[2,3-d]pyrimidin-4-amine]
≤ 100 | ≤ 1 | 10 to 100 | ≤ 10 | [O-][S+](c1ccc(F)cc1)c1nc(Nc2cc[nH]n2)c2cc[nH]c2n1 (racemic) [Example 1, (R,S)-2-(4-fluorophenylsulfinyl)-N-(1H-pyrazol-3-yl)-7H-pyrrolo[2,3-d]pyrimidin-4-amine]
100 to 500 | 1 to 10 | ≤ 10 | ≤ 10 | CNc1nc2nc(C(F)(F)c3ccc(F)cc3)nc(Nc3cc(C)[nH]n3)c2s1 [Example 42, 5-(difluoro(4-fluorophenyl)methyl)-N2-methyl-N7-(5-methyl-1H-pyrazol-3-yl)thiazolo[4,5-d]pyrimidine-2,7-diamine]
100 to 500 | 1 to 10 | > 100 | ≤ 10 | Cc1cc(Nc2nc(S(=O)(=O)c3ccc(F)cc3)nc3c2cnn3C(C)(C)C)n[nH]1 [Example 25, 1-tert-butyl-6-(4-fluorophenylsulfonyl)-N-(5-methyl-1H-pyrazol-3-yl)-1H-pyrazolo[3,4-d]pyrimidin-4-amine]
≤ 100 | ≤ 1 | 10 to 100 | ≤ 10 | Cc1cc(Nc2nc(C(F)(F)c3ccc(F)cc3)nc3[nH]ncc23)n[nH]1 [Example 30, 6-(difluoro(4-fluorophenyl)methyl)-N-(5-methyl-1H-pyrazol-3-yl)-1H-pyrazolo[3,4-d]pyrimidin-4-amine]
100 to 500 | ≤ 1 | 10 to 100 | ≤ 10 | Cc1cc(Nc2nc(S(=O)(=O)c3ccc(F)cc3)nc3c2cnn3CCO)n[nH]1 [Example 23, 2-(6-(4-fluorophenylsulfonyl)-4-(5-methyl-1H-pyrazol-3-ylamino)-1H-pyrazolo[3,4-d]pyrimidin-1-yl)ethanol]
100 to 500 | ≤ 1 | 10 to 100 | ≤ 10 | Cc1cc(Nc2nc(C(O)c3ccc(F)cc3)nc3nn(C)cc23)n[nH]1 (racemic) [Example 22, (R,S)-(4-fluorophenyl)(2-methyl-4-(5-methyl-1H-pyrazol-3-ylamino)-2H-pyrazolo[3,4-d]pyrimidin-6-yl)methanol]
